From patent US5656637A, “Thiazole derivatives” (Yamanouchi Pharmaceutical Co., Ltd., priority 1990, dated 1997)
Where two headings read alike, the source gives them in different places.

How the values were obtained:
5-HT3 receptor [1] = biological target: T1, 5-HT3 receptor (Rattus norvegicus, UniProt P35563); test: Effects of 5-HT3 receptor antagonists on the action of the compound of the present invention (decreases in heart rate and blood pressure); format: in vivo, rat (male Wistar); conditions: GR38032F 30 μg/kg i.v. or ICS 205-930 0.1-1 μg/kg i.v., 10 minutes before the compound of the present invention
T1 construct: Male Wistar rats, 9 weeks old, were anesthetized with urethane; from tissue; host or cells: whole animal in vivo: anesthetized male Wistar rat (endogenous receptor; tissue not given)
T1 sequence (P35563 24-483): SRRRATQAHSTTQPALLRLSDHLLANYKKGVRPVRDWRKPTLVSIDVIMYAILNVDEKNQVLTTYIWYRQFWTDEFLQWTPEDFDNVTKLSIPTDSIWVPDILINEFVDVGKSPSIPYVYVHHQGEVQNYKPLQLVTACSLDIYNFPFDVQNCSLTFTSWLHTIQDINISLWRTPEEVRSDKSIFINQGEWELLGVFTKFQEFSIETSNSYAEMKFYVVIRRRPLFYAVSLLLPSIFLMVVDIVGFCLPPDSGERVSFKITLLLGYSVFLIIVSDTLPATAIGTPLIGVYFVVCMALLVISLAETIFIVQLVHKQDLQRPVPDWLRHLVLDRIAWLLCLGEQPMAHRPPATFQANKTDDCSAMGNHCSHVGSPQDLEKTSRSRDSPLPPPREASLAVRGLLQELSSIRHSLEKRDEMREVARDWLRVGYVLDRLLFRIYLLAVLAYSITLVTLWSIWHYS
Protocol: Male Wistar rats, 9 weeks old, were anesthetized with urethane 1 g/kg i.p. and the blood pressure and the heart rate were determined under artificial ventilation. […] In addition, it was confirmed by using 5-HT3 receptor antagonists that the changes caused by administration of the compound of the present invention were 5-HT3 receptor-mediated responses.
2) Effects of 5-HT3 receptor antagonists on the action of the compound of the present invention
GR38032F (30 μg/kg i.v.) or ICS 205-930 (0.1-1 μg/kg i.v.), 10 minutes before administration of the compound of the present invention.

5-HT3 receptor [2] = biological target: T1, 5-HT3 receptor; test: 5-HT3 receptor stimulating action (Bezold-Jarisch reflex evoking action) in anesthetized rat, i.v.; format: in vivo, rat (male Wistar); conditions: for ED50: iv, read-out: BJ reflex evoking activity ED50
Protocol: Male Wistar rats, 9 weeks old, were anesthetized with urethane 1 g/kg i.p. and the blood pressure and the heart rate were determined under artificial ventilation.
1) 5-HT3 receptor stimulating action (Bezold-Jarisch reflex evoking action)

Row | Structure (SMILES) | inhibition by 5-HT3 receptor antagonist of the decreases in heart rate and blood pressure induced by the compound of the present invention (5-HT3 receptor [1]) | BJ reflex evoking activity Emax (maximal bradycardiac response) (5-HT3 receptor [2]; i.v., anesthetized rat) | ED50 (5-HT3 receptor [2]; rat) | Bezold-Jarisch reflex evoking activity, potency relative to serotonin (5-HT3 receptor [2]; i.v., rat, versus serotonin) | ED50 (5-HT3 receptor [2]; anesthetized rat)
1 | Cc1nccn1CC1CCc2c(c3ccccc3n2C)C1=O (racemic) [GR38032F] | competitively inhibited | – | – | – | –
2 | Cc1[nH]c2ccc(O)cc2c1CCN [2-Methylserotonin, 2-methylserotonin] | – | 259.0 beats/min | 0.0374 mg/kg | – | –
3 | COc1ccccc1Nc1nc2c(s1)CN(C)CC2.O=C(O)/C=C/C(=O)O [Example 1, 2-(o-methoxyanilino)-5-methyl-4,5,6,7-tetrahydrothiazolo[5,4-c]pyridine fumarate] | – | 205.8 beats/min | – | about 5 fold | 0.00301 mg/kg
4 | CN1C2CCC1CC(OC(=O)c1c[nH]c3ccccc13)C2 (stereo not shown) [ICS 205-930] | competitively inhibited | – | – | – | –
